# According to PMC7414198, “Genomic and enzymatic evidence of acetogenesis by anaerobic methanotrophic archaea” (Nature Communications, 2020):
# Read-outs that look alike come from different tables or passages of the source.
# How the values were obtained:
# [1] = test system: acetyl-CoA synthetase (Acs) from ANME-2a; conditions: acetyl-CoA-forming direction; concentrations of ATP and CoA not given
# [2] = test system: T1, acetyl-CoA synthetase (Acs) from ANME-2a; test: DTNB assay of HSCoA release, […] nm; assay type: biochemical, ANME-2 cluster archaeon (ANME-2a, uncultured); conditions: acetate-forming direction; 2 mM AMP, 2 mM PPi, 1.25 M KCl, 1 mM MgCl2, 20 mM Tris-HCl pH 8.0
# T1 construct: codon-optimised synthetic gene in pET-28a (NdeI/BamHI), E. coli Rosetta(DE3), Ni-NTA purified, 70 kDa
# [3] = test system: T2, ADP-forming acetate-CoA ligase (Acd) from ANME-2a; test: DTNB assay of HSCoA release, […] nm; assay type: biochemical, ANME-2 cluster archaeon (ANME-2a, uncultured); conditions: acetate-forming direction; 2 mM ADP, 40 mM K3PO4, 1 mM MgCl2, 20 mM Tris-HCl pH 8.0
# T2 construct: alpha (55 kDa) and beta (25 kDa) subunits, codon-optimised synthetic genes in pET-28a (NdeI/BamHI and BamHI/SalI, RBS before beta), E. coli BL21(DE3)-groEL, Ni-NTA purified
Compound,Km [1],Km [2],Km [3]
CC(=O)O [acetate],490 µM,,
CC(=O)SCCNC(=O)CCNC(=O)[C@H](O)C(C)(C)COP(=O)(O)OP(=O)(O)OC[C@H]1O[C@@H](n2cnc3c(N)ncnc32)[C@H](O)[C@@H]1OP(=O)(O)O [acetyl-CoA],,8.5 µM,31.3 µM
